Results as given in patent publication EP0347843A1, “Vitamine E composition improved in absorption” (Eisai Co., Ltd., priority 1988, dated 1989).
≈ marks a conversion by molar mass, not a printed value. Like-named read-outs stand apart in the source and are kept apart here.

Assay: physchem
Experimental: It was here determined how much influence a mixture of oleic acid and lecithin would put on the solubility of d-alpha-tocopherol. It was determined with changing ratios of the oleic acid to the lecithine how to dissolve d-alpha-tocopherol in 20 mM solution of bile acid.

solubility: high solubility | solubility (20 mm bile acid solution): 2000 µg/mL (≈ 4.64 mM)
Structure (SMILES): Cc1c(C)c2c(c(C)c1O)CC[C@@](C)(CCC[C@H](C)CCC[C@H](C)CCCC(C)C)O2 [d-alpha-tocopherol]
